We go through 13 compounds from PMC11672724, “Antiparasitic Activities of Acyl Hydrazones from Cinnamaldehydes and Structurally Related Fragrances” (Antibiotics, 2024).

As a reminder, the IC50 is the concentration needed to halve the response being measured. As a reminder, the melting point is the temperature, or range, at which the solid turns liquid.

Bounds are passed on as bounds.

In data set [1] the test system is L. major amastigotes. Description: Leishmania major amastigotes in peritoneal macrophages (percentage of infected macrophages, 72 h). To be noted: Macrophage, IC50 ± SD. It counts as cell-based. On the procedure: (§1) Promastigotes of L. major were obtained from a patient (February 2016) and cultured at 26 °C in Schneider’s Drosophila medium (Invitrogen, Carlsbad, CA, USA) supplemented with 10% heat-inactivated fetal bovine serum (FBS, Invitrogen, USA) and antibiotics, with weekly transfers in a tissue culture flask. Promastigotes were cryopreserved in liquid nitrogen at a concentration of 3 × 10^6 parasites/mL. Virulent L. major parasites were maintained by serial passage in female BALB/c mice, achieved by injecting hind footpads with 1 × 10^6 stationary-phase promastigotes. Amastigotes were isolated from the mice after 8 weeks, then converted to promastigotes by cultivation at 26 °C in Schneider’s medium containing 10% FBS and antibiotics. Amastigote-derived promastigotes, which underwent several in vitro passages, were used for the infection studies. BALB/c mice (both male and female) were provided by the Pharmaceutical College, King Saud University, Kingdom of Saudi Arabia, and housed in specific pathogen-free conditions following the ethical guidelines of the Qassim University Research Ethics Committee (permission number: 20-03-20).
Activity against amastigotes in macrophages was evaluated using peritoneal macrophages, which were harvested from 6–8-week-old BALB/c mice of different sex, and plated at 5 × 10^4 cells/well in 96-well plates containing phenol-red-free RPMI 1640 medium with 10% FBS. After 4 h at 37 °C and 5% CO2 to promote adhesion, cells were washed with PBS, and 200 μL of an L. major promastigote solution (10 promastigotes per macrophage) was added. Plates were incubated for 24 h at 37 °C in a 5% CO2 environment to allow infection and amastigote differentiation. Infected cells were then washed with PBS and overlaid with RPMI 1640 medium containing the test compounds at the same concentrations as applied for the experiments with promastigotes, followed by incubation at 37 °C and 5% CO2 for 72 h. […] IC50 values were calculated from three independent experiments.

For data set [2], the system named is Vero monkey kidney cells. Description: Vero cell cytotoxicity (MTT assay, 72 h). To be noted: Primates, IC50 ± SD. In kind it is cell-based. On the procedure: To assess the test compounds’ cytotoxicity, MTT assays were performed. The Vero cells and macrophages were cultivated for 24 h at 37 °C in RPMI 1640 media with 10% FBS and 5% CO2 in 96-well plates (5 × 10^3 cells/well/200 μL). Following a washing step with PBS, the cells were treated with test compounds at different concentrations (50, 25, 12.5, 6.25, 3.13, 1.65, and 0.75 μg /mL) in 10% FBS medium for 72 h. Negative control cells were only given media with 2% FBS and 1% DMSO. The cells were cultured for 4 h after the supernatant was disposed of, and 50 μL of RPMI 1640 media containing 14 μL MTT (5 mg/mL) was added. After removing the supernatant once again, 150 μL of DMSO was added. IC50 values were determined from three independent experiments.
Background: Tetrazolium assays rely on reduction of a dye to a coloured formazan, in cell work by metabolically active cells.

For data set [3], the system named is macrophages. Description: Macrophage cytotoxicity (MTT assay, 72 h). In kind it is cell-based, BALB/c mice. As to conditions: Mus musculus, IC50 ± SD. On the procedure: Plates were incubated for 24 h at 37 °C in a 5% CO2 environment to allow infection and amastigote differentiation. Infected cells were then washed with PBS and overlaid with RPMI 1640 medium containing the test compounds at the same concentrations as applied for the experiments with promastigotes, followed by incubation at 37 °C and 5% CO2 for 72 h. […] The percentage of infected macrophages was determined microscopically after fixation, Giemsa staining, and medium removal. IC50 values were calculated from three independent experiments. To assess the test compounds’ cytotoxicity, MTT assays were performed. […] Negative control cells were only given media with 2% FBS and 1% DMSO. The cells were cultured for 4 h after the supernatant was disposed of, and 50 μL of RPMI 1640 media containing 14 μL MTT (5 mg/mL) was added. After removing the supernatant once again, 150 μL of DMSO was added. IC50 values were determined from three independent experiments.

In data set [4] the test system is L. major promastigotes. Kind of data set: Leishmania major promastigote assay (MTT, 72 h). In kind it is cell-based. To be noted: for IC50: 72 h, IC50 ± SD, MTT; for SI (promastigotes) = selectivity index (macrophages/L. major promastigotes): ratio IC50 macrophages / IC50 promastigotes. On the procedure: as §1
L. major promastigotes in the logarithmic phase were cultured in phenol-red-free RPMI 1640 medium (Invitrogen, USA) with 10% FBS in 96-well plates at 10^6 cells/mL (200 μL/well, counted with a hemocytometer). Test compounds were added at final concentrations of 50, 25, 12.5, 6.25, 3.13, 1.65, and 0.75 μg/mL. […] After incubation at 26 °C for 72 h, viable promastigotes were counted using an MTT colorimetric assay. The formed formazan was dissolved in a detergent and the absorbance was measured at 570 nm using an ELISA reader. IC50 values were derived from three independent experiments.

In data set [5] the test system is T. gondii RH strain tachyzoites. Kind of data set: Toxoplasma gondii cells drug testing assay (infection index in Vero cells, 72 h). It counts as cell-based. To be noted: for IC50: Toxoplasma gondii, Vero, IC50 ± SD, three independent experiments, 72 h; for SI = selectivity index (Vero/T. gondii): ratio IC50 Vero / IC50 T. gondii. How it is done: Cells of the Vero cell line (ATCC® CCL81™, Manassas, VA, USA) were used to cultivate T. gondii RH strain tachyzoites. Vero cells were maintained in complete RPMI 1640 medium (Thermo Fisher Scientific, Waltham, MA, USA). For cell cultivation, 96-well plates were prepared with 5 × 10^3 cells per well in 200 μL of RPMI 1640 medium, then incubated at 37 °C and 5% CO2 for 24 h. The medium was then removed, and cells were washed with phosphate-buffered saline (PBS). Next, RPMI 1640 medium with 2% FBS and parasites at a 5:1 parasite-to-cell ratio were added. After a 5 h incubation at 37 °C and 5% CO2, cells were washed with PBS and subjected to further treatments. […] After incubation at 37 °C and 5% CO2 for 72 h, cells were washed with PBS, fixed in 10% formalin, and stained with 1% toluidine blue. An inverted photomicroscope was used to assess cell infection and to determine the infection index (number of infected cells out of 200 counted cells). The inhibition percentage was calculated as follows:Inhibition (%) = [(I Control − I Experimental)/I Control] × 100 where “I Control” represents the infection index of untreated cells, and “I Experimental” represents the infection index of cells treated with test compounds. The effects of the compounds on parasite growth are expressed as IC50 values derived from three independent experiments.

Compound `O=C(N/N=C/C=C/c1ccccc1)c1cccc(O)c1` [Compound 2e, (E)-N′-(Cinnamylidene)-3-hydroxybenzoylhydrazide] registered a melting point of 249 to 250 °C. Besides, in data set [1], the IC50 is over 49.6 µM. The same compound displayed an IC50 in data set [2] of 46.2 ± 6.4 µM. Besides, the IC50 in data set [3] is over 49.6 µM. Besides, the IC50 in data set [4] (Leishmania major) was over 49.6 µM. In addition, in data set [5], the “activity against T. gondii (in words)” value is “inactive” and the IC50 is over 49.6 µM.

`CN(C)c1ccc(/C=C/C=N/NC(=O)c2cccc(O)c2)cc1` [Compound 2f, (E)-N′-(4-Dimethylaminocinnamylidene)-3-hydroxybenzoylhydrazide] showed a melting point of 257 to 258 °C. Besides, the IC50 in data set [1] was over 42.7 µM. Besides, in data set [2], it took 40.1 ± 6.8 µM to reach half-maximal inhibition (IC50). Besides, the IC50 in data set [3] is over 42.7 µM. Besides, the IC50 in data set [4] (Leishmania major) is over 42.7 µM. Besides, in data set [5], the “activity against T. gondii (in words)” value was “inactive” and the IC50 was over 42.7 µM.

With `CN(C)c1ccc(/C=C/C=N/NC(=O)c2ccccc2F)cc1` [Compound 2h, (E)-N′-(4-Dimethylaminocinnamylidene)-2-fluorobenzoylhydrazide], the melting point fell in the range of 205 to 206 °C. Besides, the IC50 in data set [1] was over 64.2 µM. It took 54.1 ± 9.1 µM to reach half-maximal inhibition in data set [2] (IC50). This compound came in with an IC50 in data set [3] of over 64.2 µM. In data set [4] (Leishmania major), the IC50 was over 64.2 µM. Moreover, in data set [5], it took 55.2 ± 9.7 µM to reach half-maximal inhibition (IC50) and the “SI = selectivity index (Vero/T. gondii)” value turned out to be 0.98.

The compound `O=C(N/N=C/C=C/c1ccccc1)c1cccc(F)c1` [Compound 2i, (E)-N′-(Cinnamylidene)-3-fluorobenzoylhydrazide] showed a melting point of 205 to 206 °C. In data set [1], this compound yielded an IC50 of over 49.2 µM. The IC50 in data set [2] is 44 ± 6.7 µM. Also, the IC50 in data set [3] was over 49.2 µM. In data set [4] (Leishmania major), this compound showed an IC50 of over 49.2 µM. In data set [5], half-maximal inhibition (IC50) required 39.1 ± 6.4 µM and the “SI = selectivity index (Vero/T. gondii)” value is given as 1.1.

Consider `CN(C)c1ccc(/C=C/C=N/NC(=O)c2cccc(F)c2)cc1` [Compound 2j, (E)-N′-(4-Dimethylaminocinnamylidene)-3-fluorobenzoylhydrazide], for which the melting point came out at 208 °C. Also, the IC50 in data set [1] is over 42.4 µM. The IC50 in data set [2] was over 42.4 µM. The compound also returned an IC50 in data set [3] of over 42.4 µM. For the same compound, the IC50 in data set [4] (Leishmania major) is over 42.4 µM. The compound further registered an IC50 in data set [5] of over 42.4 µM.

Take `CN(C)c1ccc(/C=C/C=N/NC(=O)c2cccc(Cl)c2)cc1` [Compound 2k, (E)-N′-(4-Dimethylaminocinnamylidene)-3-chlorobenzoylhydrazide]: the melting point came out at 210 °C. The compound also had an IC50 in data set [1] of over 40.3 µM. The IC50 in data set [2] was over 40.3 µM. This compound showed an IC50 in data set [3] of over 40.3 µM. Moreover, the IC50 in data set [4] (Leishmania major) is over 40.3 µM. In data set [5], this compound showed an IC50 of over 40.3 µM.

`CC(C)Cc1ccc(CC(C)/C=N/NC(=O)c2ccccc2O)cc1` (stereo not drawn) [Compound 3b, N′-2-Methyl-3-[4-(2-methylpropyl)phenyl]propanylidene-2-hydroxybenzoylhydrazide] yielded a melting point of 160 to 161 °C. In data set [1], this compound returned an IC50 of 58.6 ± 8.6 µM. The compound further yielded an IC50 in data set [2] of 24.6 ± 3.3 µM. The compound also displayed an IC50 in data set [3] of over 59.1 µM. For the same compound, the half-maximal inhibitory concentration (IC50) in data set [4] (Leishmania major) is over 59.1 µM. In addition, in data set [5], the IC50 was determined as 13.7 ± 2.2 µM and the “SI = selectivity index (Vero/T. gondii)” value was found to be 1.8.

`CC(C)Cc1ccc(CC(C)/C=N/NC(=O)c2cccc(O)c2)cc1` (stereo not drawn) [Compound 3c, N′-2-Methyl-3-[4-(2-methylpropyl)phenyl]propanylidene-3-hydroxybenzoylhydrazide] came in with a melting point of 182 to 183 °C. In data set [1], the IC50 is over 59.1 µM. The IC50 in data set [2] was over 59.1 µM. The half-inhibitory concentration (IC50) in data set [3] is over 59.1 µM. In data set [4] (Leishmania major), this compound returned an IC50 of over 59.1 µM. In data set [5], this compound came in with an IC50 of 55.3 ± 9.4 µM.

Compound `CC(C)Cc1ccc(CC(C)/C=N/NC(=O)c2ccccc2F)cc1` (stereo not drawn) [Compound 3d, N′-2-Methyl-3-[4-(2-methylpropyl)phenyl]propanylidene-2-fluorobenzoylhydrazide] returned a melting point of 82 to 83 °C. In data set [1], this compound came in with an IC50 of over 58.8 µM. The same compound gave an IC50 in data set [2] of 56.1 ± 10.4 µM. In addition, the IC50 in data set [3] is over 58.8 µM. The IC50 in data set [4] (Leishmania major) was over 58.8 µM. Besides, in data set [5], the IC50 came to 46.3 ± 5.5 µM and the “SI = selectivity index (Vero/T. gondii)” value is listed as 1.2.

For the compound `CC(C)c1cccc(C(C)C/C=N/NC(=O)c2cccc(Cl)c2)c1` (stereo not drawn) [Compound 4f, N′-3-(3-Isopropylphenyl)butanylidene-3-chlorobenzoylhydrazide], the IC50 in data set [1] was over 58.3 µM; in data set [2] it was 57.9 ± 11 µM; in data set [3], over 58.3 µM; in data set [4] it was 27.9 ± 4.2 µM; in data set [4] (Leishmania major), under 30 µM; in data set [5], 47.5 ± 7.3 µM. Moreover, the “SI (promastigotes) = selectivity index (macrophages/L. major promastigotes)” value in data set [4] was over 2.1. For the same compound, in data set [5], the “SI = selectivity index (Vero/T. gondii)” value is given as 1.2.

As to `CC(C)c1cccc(C(C)C/C=N/NC(=O)c2ccncc2)c1` (stereo not drawn) [Compound 4g, N′-3-(3-Isopropylphenyl)butanylidene-isonicotinoylhydrazide], the IC50 in data set [1] is over 64.6 µM; in data set [2], over 64.6 µM; in data set [3] it was over 64.6 µM; in data set [4] (Leishmania major) it was 54.6 ± 9 µM; in data set [5], over 64.6 µM. For the same compound, the “SI (promastigotes) = selectivity index (macrophages/L. major promastigotes)” value in data set [4] is reported as over 1.2.

As for `CC(C)c1cccc(C(C)CC=O)c1` (stereo not drawn) [Florhydral^TM, 3-(3-isopropylphenyl)butanal, reference compound], the IC50 is over 105 µM in data set [1]; 99.1 ± 18.4 µM in data set [2]; over 105 µM in data set [3]; over 105 µM in data set [4] (Leishmania major); over 105 µM in data set [5].

As for `CC(C)Cc1ccc(CC(C)C=O)cc1` (stereo not drawn) [Silvial^TM, 2-methyl-3-[4-(2-methylpropyl)phenyl]propanal, reference compound], the half-maximal inhibitory concentration (IC50) was over 97.9 µM in data set [1]; over 97.9 µM in data set [2]; over 97.9 µM in data set [3]; over 97.9 µM in data set [4] (Leishmania major); 90.1 ± 15.2 µM in data set [5].
